{"source": "paper PMC8187479", "about": "“Sugar phosphate activation of the stress sensor eIF2B” (Nature Communications, 2021)", "key": {"[1]": {"target": "T1, eIF2B in WT HEK293T lysate (Homo sapiens, UniProt P49770+Q14232+Q9UI10)", "T1 construct": "endogenous in cells; host or cells: HEK293T (wild type) lysate", "assay": "GEF activity assay with WT HEK293T lysate", "assay_type": "biochemical", "procedure": "(§1) Bodipy-FL-GDP-loaded eIF2 was used as a substrate for recombinant eIF2B. The assay was performed in 384-well plates. Reactions were read on a SpectraMax i3x plate reader (Molecular Devices) using the instrument’s Softmax Pro software with the following parameters: plate temperature = 25 °C; excitation wavelength = 485 nm (15 nm width); emission wavelength = 535 nm (25 nm width); read duration = 30 min at 45 s intervals. Data were analyzed in Prism. GDP release half-lives were calculated by fitting single-exponential decay curves.\n(§2) For unbiased screening, MIDAS metabolite libraries at 10 mM stock concentration were dispensed into wells of the assay plate using an Echo Acoustic Liquid Handler (Labcyte). In a final assay volume of 10 μL/well, the following conditions were kept constant: 25 nM Bodipy-FL-GDP-loaded eIF2, 4 nM phospho-eIF2, 0.1 mM GDP, 1 mg/mL BSA, 1 nM eIF2B, 10 μM metabolite. A single well was run for each metabolite. For targeted experiments with recombinant wild-type and mutant eIF2Bα, the following conditions were used: 50 nM Bodipy-FL-GDP-loaded eIF2, 0.1 mM GDP, 1 mg/ml BSA, 20 nM eIF2B. For targeted experiments with HEK293T lysates, the following conditions were used: 50 nM Bodipy-FL-GDP-loaded eIF2, 0.1 mM GDP, 1 mg/ml BSA, 0.1 or 0.3 mg/ml lysates."}, "[2]": {"target": "T2, eIF2B decamer in eIF2Bα^V183F HEK293T lysate (Homo sapiens, UniProt P49770+Q14232+Q9UI10, V183F)", "T2 construct": "endogenous in cells", "T2 sequence (Q14232 whole entry V183F)": "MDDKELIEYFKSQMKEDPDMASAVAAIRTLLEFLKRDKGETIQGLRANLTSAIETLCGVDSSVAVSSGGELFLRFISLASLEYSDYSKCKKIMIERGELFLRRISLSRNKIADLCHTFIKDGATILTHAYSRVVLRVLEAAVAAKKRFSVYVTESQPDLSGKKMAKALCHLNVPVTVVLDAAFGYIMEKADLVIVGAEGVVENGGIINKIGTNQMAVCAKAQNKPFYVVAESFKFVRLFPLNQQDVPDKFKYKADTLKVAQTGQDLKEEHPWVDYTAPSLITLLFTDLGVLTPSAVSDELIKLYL", "T2 sequence (P49770 whole entry)": "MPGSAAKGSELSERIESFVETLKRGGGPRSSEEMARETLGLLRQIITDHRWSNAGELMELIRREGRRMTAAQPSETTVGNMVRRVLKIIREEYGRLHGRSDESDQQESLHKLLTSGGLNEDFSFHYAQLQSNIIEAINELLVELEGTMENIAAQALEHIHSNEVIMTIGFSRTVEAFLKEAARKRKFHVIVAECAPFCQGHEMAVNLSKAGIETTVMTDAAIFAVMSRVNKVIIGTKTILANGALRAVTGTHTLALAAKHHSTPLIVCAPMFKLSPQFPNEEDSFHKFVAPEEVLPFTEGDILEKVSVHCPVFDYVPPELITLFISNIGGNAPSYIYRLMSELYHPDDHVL", "T2 sequence (Q9UI10 whole entry)": "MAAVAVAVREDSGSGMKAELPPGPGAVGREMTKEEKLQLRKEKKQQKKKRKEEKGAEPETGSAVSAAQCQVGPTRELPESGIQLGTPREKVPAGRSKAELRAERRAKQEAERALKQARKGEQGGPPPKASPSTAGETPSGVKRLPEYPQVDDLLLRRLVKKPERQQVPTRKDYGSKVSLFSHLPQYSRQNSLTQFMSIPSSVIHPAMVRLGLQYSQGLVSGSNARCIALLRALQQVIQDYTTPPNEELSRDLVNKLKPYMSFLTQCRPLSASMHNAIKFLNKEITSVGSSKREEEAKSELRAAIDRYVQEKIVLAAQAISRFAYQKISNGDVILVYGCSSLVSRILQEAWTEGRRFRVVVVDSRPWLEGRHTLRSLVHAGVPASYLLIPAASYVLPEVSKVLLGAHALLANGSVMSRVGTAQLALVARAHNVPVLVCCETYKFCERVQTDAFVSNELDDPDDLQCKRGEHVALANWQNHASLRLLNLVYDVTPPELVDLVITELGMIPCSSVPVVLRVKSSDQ", "T2 sequence (Q9NR50 whole entry partner)": "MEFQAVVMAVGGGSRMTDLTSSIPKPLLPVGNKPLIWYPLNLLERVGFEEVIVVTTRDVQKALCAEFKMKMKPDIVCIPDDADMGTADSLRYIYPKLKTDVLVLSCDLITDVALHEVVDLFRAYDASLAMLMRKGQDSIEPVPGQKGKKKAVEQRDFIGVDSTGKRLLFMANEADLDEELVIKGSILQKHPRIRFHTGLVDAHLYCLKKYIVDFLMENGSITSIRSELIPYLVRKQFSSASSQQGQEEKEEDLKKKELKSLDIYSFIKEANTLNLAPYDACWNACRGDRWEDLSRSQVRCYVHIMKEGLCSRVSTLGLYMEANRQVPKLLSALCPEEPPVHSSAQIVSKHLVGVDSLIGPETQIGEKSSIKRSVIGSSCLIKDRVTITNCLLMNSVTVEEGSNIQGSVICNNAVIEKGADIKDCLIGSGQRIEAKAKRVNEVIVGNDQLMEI", "T2 sequence (Q13144 whole entry partner)": "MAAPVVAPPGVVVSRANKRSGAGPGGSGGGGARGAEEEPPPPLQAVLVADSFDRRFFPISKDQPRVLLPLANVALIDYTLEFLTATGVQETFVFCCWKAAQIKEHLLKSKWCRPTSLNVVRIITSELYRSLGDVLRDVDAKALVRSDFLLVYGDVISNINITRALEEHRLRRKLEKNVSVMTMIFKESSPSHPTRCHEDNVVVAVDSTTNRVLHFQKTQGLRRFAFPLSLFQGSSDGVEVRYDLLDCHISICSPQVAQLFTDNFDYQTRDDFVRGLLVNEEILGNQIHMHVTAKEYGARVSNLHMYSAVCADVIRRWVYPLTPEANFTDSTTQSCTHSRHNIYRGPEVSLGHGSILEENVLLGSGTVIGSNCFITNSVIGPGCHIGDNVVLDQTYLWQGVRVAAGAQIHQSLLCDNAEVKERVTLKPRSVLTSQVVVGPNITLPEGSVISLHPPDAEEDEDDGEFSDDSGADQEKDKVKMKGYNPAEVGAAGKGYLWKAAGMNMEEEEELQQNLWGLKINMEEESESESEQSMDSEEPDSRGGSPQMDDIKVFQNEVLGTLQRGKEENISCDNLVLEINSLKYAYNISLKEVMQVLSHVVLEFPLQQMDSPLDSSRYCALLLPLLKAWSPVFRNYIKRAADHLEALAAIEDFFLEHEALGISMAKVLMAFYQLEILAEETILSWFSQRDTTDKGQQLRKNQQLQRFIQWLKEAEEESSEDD", "assay": "Sucrose gradient centrifugation, eIF2B complex assembly, eIF2Bα V183F HEK293T lysate", "assay_type": "biochemical", "conditions": "500 nM ISRIB, 200 μM F6P", "procedure": "(§3) WT or eIF2Bα mutant HEK293T cells were harvested and lysed in 50 mM HEPES, 400 mM KCl, 1 mM DTT, 4 mM Mg(OAc)2, pH 7.5 + 0.5% Triton-X-100 + EDTA-free protease inhibitor cocktail (Roche) on ice for 30 min. Lysates were cleared by centrifugation at 48,000 × g, 4 °C for 30 min. 100 μL of each cleared lysate was loaded onto a 5–20% sucrose gradient prepared in a 13 × 51 mm ultracentrifuge tube using a Gradient Station (Biocomp) and centrifuged in a SW55 Ti rotor at 152,000 × g, 4 °C for 12 h. After centrifugation, 24 × 200 μL fractions were manually collected from the top to bottom of each gradient. Each fraction was subjected to methanol/chloroform precipitation and SDS-PAGE followed by Western Blot with the indicated antibodies. Blots were imaged on a ChemiDoc MP (Bio-Rad), and band intensities were quantified using the instrument’s Image Lab software. Each value was then divided by total intensity obtained across all fractions to determine percent enrichment of each subunit in each fraction."}, "eIF2Bα^V183F [3]": {"target": "T3, eIF2Bα^V183F (Homo sapiens, UniProt Q14232, V183F)", "assay": "Isothermal titration calorimetry, eIF2Bα V183F", "assay_type": "binding", "conditions": "ITC", "procedure": "Interactions between recombinant protein and sugar phosphates were conducted with a MicroCal PEAQ-ITC (Malvern Panalytical Inc.). Experiments were performed in 25 mM HEPES, 150 mM NaCl, pH 7.5 at 20 °C. […] The final titration curves were fitted using MicroCal ITC data analysis software, assuming a single binding site per monomer."}, "[4]": {"target": "T4, eIF2B in eIF2Bα^E198K HEK293T lysate (Homo sapiens, UniProt P49770+Q14232+Q9UI10, E198K)", "T4 construct": "endogenous in cells; host or cells: HEK293T, CRISPR knock-in eIF2Bα E198K (homozygous), lysate", "T4 sequence (Q14232 whole entry E198K)": "as the sequence (Q14232 whole entry V183F) above, with F183V, E198K counted along it", "T4 sequence (P49770 whole entry)": "as the sequence (P49770 whole entry) above", "T4 sequence (Q9UI10 whole entry)": "as the sequence (Q9UI10 whole entry) above", "T4 sequence (Q9NR50 whole entry partner)": "as the sequence (Q9NR50 whole entry partner) above", "T4 sequence (Q13144 whole entry partner)": "as the sequence (Q13144 whole entry partner) above", "assay": "GEF activity assay with eIF2Bα E198K HEK293T lysate", "assay_type": "biochemical", "procedure": "as §1, §2"}, "[5]": {"target": "T5, recombinant eIF2B(βδγε) ± eIF2Bα2 (Homo sapiens, UniProt P49770+Q14232+Q9UI10)", "T5 construct": "made in house; host or cells: eIF2Bα: E. coli BL21(DE3)", "T5 sequence (Q14232 whole entry)": "as the sequence (Q14232 whole entry V183F) above, with F183V counted along it", "T5 sequence (P49770 whole entry)": "as the sequence (P49770 whole entry) above", "T5 sequence (Q9UI10 2-523)": "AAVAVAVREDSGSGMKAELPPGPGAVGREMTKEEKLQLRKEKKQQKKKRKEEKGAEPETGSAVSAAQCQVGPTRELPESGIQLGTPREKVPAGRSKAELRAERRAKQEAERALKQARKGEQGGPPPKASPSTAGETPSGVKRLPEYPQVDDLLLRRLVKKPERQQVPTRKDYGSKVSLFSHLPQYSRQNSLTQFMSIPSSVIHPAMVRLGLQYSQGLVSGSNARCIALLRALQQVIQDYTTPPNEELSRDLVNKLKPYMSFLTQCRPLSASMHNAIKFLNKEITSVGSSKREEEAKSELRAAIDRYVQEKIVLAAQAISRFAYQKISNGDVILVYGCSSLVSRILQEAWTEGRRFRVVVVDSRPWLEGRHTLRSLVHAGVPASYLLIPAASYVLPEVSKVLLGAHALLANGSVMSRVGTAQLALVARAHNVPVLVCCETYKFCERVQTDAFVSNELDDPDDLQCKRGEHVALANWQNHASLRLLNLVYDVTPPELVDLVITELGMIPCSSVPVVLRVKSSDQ", "T5 sequence (Q9NR50 whole entry partner)": "as the sequence (Q9NR50 whole entry partner) above", "T5 sequence (Q13144 whole entry partner)": "as the sequence (Q13144 whole entry partner) above", "assay": "Size-exclusion chromatography of recombinant eIF2B(βδγε) with or without eIF2Bα", "assay_type": "biochemical", "conditions": "SEC, recombinant eIF2B(βδγε) + eIF2Bα2; 500 nM ISRIB, 200 μM F6P", "procedure": "(§4) Purified proteins were thawed and centrifuged at 20,000 × g, 10 min, 4 °C to remove any potential precipitate. Concentrations of eIF2B(βδγε) and eIF2Bα were normalized to 2 μM and 2.4 μM, respectively. 0.2 mL of each mixture was injected onto a Superose 6 Increase 10/300 column connected to an AKTA Pure 25 FPLC system (GE Healthcare). The system was run at 0.5 mL/min for 1 h using 25 mM HEPES, 200 mM KCl, 2 mM MgCl2, 1 mM DTT, pH 7.5 as the mobile phase. For conditions with ISRIB, the protein samples and mobile phase were supplemented with 500 nM ISRIB. For conditions with F6P, the protein samples and mobile phase were supplemented with 200 μM F6P. UV280 measurements were obtained directly by the instrument."}, "[6]": {"target": "T6, recombinant eIF2B(βδγε) ± eIF2Bα2 (Homo sapiens, UniProt P49770+Q9UI10)", "T6 construct": "made in house; host or cells: eIF2Bα: E. coli BL21(DE3)", "T6 sequence (P49770 whole entry)": "as the sequence (P49770 whole entry) above", "T6 sequence (Q9UI10 2-523)": "as the sequence (Q9UI10 2-523) above", "T6 sequence (Q9NR50 whole entry partner)": "as the sequence (Q9NR50 whole entry partner) above", "T6 sequence (Q13144 whole entry partner)": "as the sequence (Q13144 whole entry partner) above", "assay": "Size-exclusion chromatography of recombinant eIF2B(βδγε) with or without eIF2Bα", "assay_type": "biochemical", "conditions": "SEC, recombinant eIF2B(βδγε); 500 nM ISRIB, 200 μM F6P", "procedure": "as §4"}, "[7]": {"target": "T7, eIF2B decamer in WT HEK293T lysate (Homo sapiens, UniProt P49770+Q14232+Q9UI10)", "T7 construct": "endogenous in cells; host or cells: HEK293T (wild type) lysate", "assay": "Sucrose gradient centrifugation, eIF2B complex assembly, WT HEK293T lysate", "assay_type": "biochemical", "conditions": "400 mM KCl, 5–20% sucrose gradient", "procedure": "as §3"}, "eIF2B(βδγε)": {"target": "T8, eIF2B(βδγε) (Homo sapiens, UniProt P49770+Q9UI10)", "T8 construct": "made in house", "assay": "Isothermal titration calorimetry, eIF2B(βδγε) subcomplex", "assay_type": "binding", "conditions": "ITC", "procedure": "Interactions between recombinant protein and sugar phosphates were conducted with a MicroCal PEAQ-ITC (Malvern Panalytical Inc.). Experiments were performed in 25 mM HEPES, 150 mM NaCl, pH 7.5 at 20 °C. The sugar phosphate concentration in the syringe was 1 mM or 1.5 mM, and ~3.5 μL aliquots were injected into cells containing 300 μL eIF2Bα or eIF2B(βδγε) at a concentration of 20–30 μM. The final titration curves were fitted using MicroCal ITC data analysis software, assuming a single binding site per monomer."}, "eIF2Bα^V183F [8]": {"target": "T3, eIF2Bα^V183F", "assay": "Size-exclusion chromatography of recombinant eIF2Bα V183F, alone or with eIF2B(βδγε)", "assay_type": "biochemical", "parameters": "made in house; host or cells: E. coli BL21(DE3)", "conditions": "SEC, recombinant eIF2B(βδγε) + eIF2Bα V183F; 200 μM F6P", "procedure": "as §4"}}, "data": [{"smiles": "O=C(CO)[C@@H](O)[C@H](O)[C@H](O)COP(=O)(O)O", "note": "[F6P, fructose-6-phosphate]", "values": [{"measurement": "effect on GEF activity of WT lysate", "setting": "[1]", "value": "stimulated"}, {"measurement": "eIF2B decamer formation", "setting": "[2]", "value": "promoted decamer formation at comparable levels"}, {"measurement": "Kd", "setting": "eIF2Bα^V183F [3]", "value": "6.3 ± 0.7", "unit": "µM"}, {"measurement": "effect on GEF activity of eIF2Bα E198K lysate", "setting": "[4]", "value": "does not respond"}, {"measurement": "complex formation in the presence of eIF2Bα", "setting": "[5]", "value": "enhances eIF2B complex stability"}, {"measurement": "complex formation in the absence of eIF2Bα", "setting": "[6]", "value": "ineffective at promoting complex formation"}, {"measurement": "eIF2B decamer formation (migration of eIF2Bα and eIF2Bδ)", "setting": "[7]", "value": "induced stabilization of the eIF2B decamer comparable to ISRIB"}, {"measurement": "interaction with eIF2B(βδγε) subcomplex", "setting": "eIF2B(βδγε)", "value": "did not interact appreciably"}, {"measurement": "eIF2Bα V183F monomer peak", "setting": "eIF2Bα^V183F [8]", "value": "significant reduction of the eIF2Bα^V183F monomer peak"}]}]}
